From US6737383B1, “Herbicidal oxadiazolidines” (priority 1999, dated 2004)

Tests used:
Settings in all cases: Preemergence, 0 to 100 scale
[1] = tested on: common pursiane; assay: Test D common purslane; type: in vivo, Portulaca oleracea
Summary of the method: (§1)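 Seeds were sown in greenhouse pots, one species per pot or compartment. Compounds were in a non-phytotoxic solvent mixture with surfactant; preemergence applications went on the sandy loam surface within one day of planting. Injury was rated visually after 14 to 21 days, 0 (none) to 100 (complete control).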

[2] = tested on: pitted morningglory; assay: Test D pitted morningglory; type: in vivo, Ipomoea lacunosa
Summary of the method: as §1

[3] = tested on: Spanishneedles; assay: Test D Spanishneedles; type: in vivo, Bidens bipinnata
Summary of the method: as §1

[4] = tested on: guineagrass; assay: Test D guineagrass; type: in vivo, Panicum maximum
Summary of the method: as §1

[5] = tested on: sandbur; assay: Test D sandbur; type: in vivo, Cenchrus echinatus
Summary of the method: as §1

[6] = tested on: bermuda-grass; assay: Test D bermudagrass; type: in vivo, Cynodon dactylon
Summary of the method: as §1

[7] = tested on: surinam grass; assay: Test D surinam grass; type: in vivo, Brachiaria decumbens
Summary of the method: as §1

[8] = tested on: purple nutsedge; assay: Test D purple nutsedge; type: in vivo, Cyperus rotundus
Summary of the method: as §1

[9] = tested on: common groundsel; assay: Test D common groundsel; type: in vivo, Senecio vulgaris
Summary of the method: as §1

[10] = tested on: dallisgrass; assay: Test D dallisgrass; type: in vivo, Paspalum dilatatum
Summary of the method: as §1

[11] = tested on: tall mallow; assay: Test D tall mallow; type: in vivo, Malva sylvestris
Summary of the method: as §1

[12] = tested on: large crabgrass; assay: Test D large crabgrass; type: in vivo, Digitaria sanguinalis
Summary of the method: as §1

[13] = tested on: Johnson grass; assay: Test D Johnson grass; type: in vivo, Sorghum halepense
Summary of the method: as §1

[14] = tested on: goosegrass; assay: Test D goosegrass; type: in vivo, Eleusine indica
Summary of the method: as §1

[15] = tested on: Alexandergrass; assay: Test D Alexandergrass; type: in vivo, Brachiaria plantaginea
Summary of the method: as §1

[16] = Rate 16 g/ha, 0 no injury, 100 complete control
[17] = Rate 32 g/ha, 0 no injury, 100 complete control
[18] = Rate 64 g/ha, 0 no injury, 100 complete control
[19] = Rate 125 g/ha, 0 no injury, 100 complete control

SMILES: Cc1cccc(C)c1-n1c(=O)on(C(=O)N(c2ccccc2)C(C)C)c1=O [Compound 46]
- Plant response rating, C. purslane [1, 16]: 0
- Plant response rating, C. purslane [1, 17]: 0
- Plant response rating, C. purslane [1, 18]: 0
- Plant response rating, C. purslane [1, 19]: 0
- Plant response rating, C. purslane ([1]; Rate 250 g/ha): 0
- Plant response rating, C. purslane ([1]; Rate 500 g/ha): 0
- Plant response rating, P. morninglory [2, 16]: 0
- Plant response rating, P. morninglory [2, 17]: 0
- Plant response rating, P. morninglory [2, 18]: 0
- Plant response rating, P. morninglory [2, 19]: 0
- Plant response rating, P. morninglory ([2]; Rate 250 g/ha): 0
- Plant response rating, P. morninglory ([2]; Rate 500 g/ha): 0
- Plant response rating, Spanishneedles [3, 16]: 0
- Plant response rating, Spanishneedles [3, 17]: 0
- Spanishneedles plant response rating [3, 18]: 0
- Spanishneedles plant response rating [3, 19]: 10
- Plant response rating, Spanishneedles ([3]; Rate 500 g/ha): 20
- Plant response rating, Guineagrass [4, 16]: 0
- Plant response rating, Guineagrass [4, 17]: 0
- Plant response rating, Guineagrass [4, 18]: 30
- Plant response rating, Guineagrass [4, 19]: 30
- Plant response rating, Guineagrass ([4]; Rate 250 g/ha): 65
- Plant response rating, Guineagrass ([4]; Rate 500 g/ha): 85
- Plant response rating, Sandbur [5, 16]: 0
- Plant response rating, Sandbur [5, 17]: 0
- Sandbur plant response rating [5, 18]: 0
- Sandbur plant response rating [5, 19]: 0
- Plant response rating, Sandbur ([5]; Rate 250 g/ha): 0
- Plant response rating, Sandbur ([5]; Rate 500 g/ha): 0
- Plant response rating, Bermudagrass [6, 16]: 65
- Plant response rating, Bermudagrass [6, 17]: 85
- Plant response rating, Bermudagrass [6, 18]: 98
- Plant response rating, Bermudagrass [6, 19]: 100
- Plant response rating, Bermudagrass ([6]; Rate 250 g/ha): 100
- Plant response rating, Bermudagrass ([6]; Rate 500 g/ha): 100
- Plant response rating, Surinam grass [7, 16]: 0
- Plant response rating, Surinam grass [7, 17]: 0
- Surinam grass plant response rating [7, 18]: 0
- Surinam grass plant response rating [7, 19]: 0
- Plant response rating, Surinam grass ([7]; Rate 250 g/ha): 10
- Plant response rating, Surinam grass ([7]; Rate 500 g/ha): 30
- Plant response rating, Purple nutsedge [8, 16]: 0
- Plant response rating, Purple nutsedge [8, 17]: 0
- Purple nutsedge plant response rating [8, 18]: 0
- Purple nutsedge plant response rating [8, 19]: 0
- Plant response rating, Purple nutsedge ([8]; Rate 250 g/ha): 0
- Plant response rating, Purple nutsedge ([8]; Rate 500 g/ha): 0
- Plant response rating, Com. groundsel [9, 16]: 0
- Plant response rating, Com. groundsel [9, 17]: 0
- Plant response rating, Com. groundsel [9, 18]: 0
- Plant response rating, Com. groundsel [9, 19]: 0
- Plant response rating, Com. groundsel ([9]; Rate 250 g/ha): 0
- Plant response rating, Com. groundsel ([9]; Rate 500 g/ha): 0
- Plant response rating, Dallisgrass [10, 16]: 20
- Plant response rating, Dallisgrass [10, 17]: 40
- Plant response rating, Dallisgrass [10, 18]: 40
- Plant response rating, Dallisgrass [10, 19]: 100
- Plant response rating, Dallisgrass ([10]; Rate 250 g/ha): 100
- Plant response rating, Dallisgrass ([10]; Rate 500 g/ha): 100
- Plant response rating, Tall Mallow [11, 16]: 0
- Plant response rating, Tall Mallow [11, 17]: 0
- Tall Mallow plant response rating [11, 18]: 0
- Tall Mallow plant response rating [11, 19]: 10
- Plant response rating, Tall Mallow ([11]; Rate 250 g/ha): 10
- Plant response rating, Tall Mallow ([11]; Rate 500 g/ha): 10
- Plant response rating, Large crabgrass [12, 16]: 0
- Plant response rating, Large crabgrass [12, 17]: 20
- Plant response rating, Large crabgrass [12, 18]: 40
- Plant response rating, Large crabgrass [12, 19]: 98
- Plant response rating, Large crabgrass ([12]; Rate 250 g/ha): 100
- Plant response rating, Large crabgrass ([12]; Rate 500 g/ha): 100
- Plant response rating, Johnsongrass [13, 16]: 0
- Plant response rating, Johnsongrass [13, 17]: 0
- Plant response rating, Johnsongrass [13, 18]: 0
- Plant response rating, Johnsongrass [13, 19]: 40
- Plant response rating, Johnsongrass ([13]; Rate 250 g/ha): 40
- Plant response rating, Johnsongrass ([13]; Rate 500 g/ha): 60
- Plant response rating, Goosegrass [14, 16]: 0
- Plant response rating, Goosegrass [14, 17]: 20
- Plant response rating, Goosegrass [14, 18]: 75
- Plant response rating, Goosegrass [14, 19]: 85
- Plant response rating, Goosegrass ([14]; Rate 250 g/ha): 98
- Plant response rating, Goosegrass ([14]; Rate 500 g/ha): 100
- Plant response rating, Alexandergrass [15, 16]: 0
- Plant response rating, Alexandergrass [15, 17]: 0
- Plant response rating, Alexandergrass [15, 18]: 40
- Plant response rating, Alexandergrass [15, 19]: 65
- Plant response rating, Alexandergrass ([15]; Rate 250 g/ha): 75
- Plant response rating, Alexandergrass ([15]; Rate 500 g/ha): 80
